Values joined by “and” are separate entries in the source; they are usually repeats but may differ in a detail not shown here. Equal values may be shown once. Read-outs that look alike come from different tables or passages of the source.
Test: Pharmacokinetics of ciprofol in rats pretreated with psoralen, clopidogrel or CMC
Format: in vivo, rat
Details: ciprofol 2.4 mg·kg^-1 i.v.; for concentration at 20 min: T 20.00 min; for concentration at 30 min: T 30.00 min; for concentration at 45 min: T 45.00 min; for concentration at 2 min: T 2.00 min; for concentration at 8 min: T 8.00 min; for concentration at 12 min: T 12.00 min; for concentration at 16 min: T 16.00 min
Method: 5 μL of IS solution (2.5 μg·mL^-1 D6-ciprofol) was added to 100 μL of plasma and mixed. Then, 300 μL of acetonitrile was added. The mixture was vortexed for 2 min and centrifuged for 10 min, and the supernatant was transferred to an autosampler vial for HPLC-MS/MS detection.
Twenty-four SD rats were randomly and equally divided into three groups: the control group, psoralen group and clopidogrel group. The administration scheme was as follows: the control group received 0.5% carboxy methyl cellulose by gavage (1 mL·200 g^-1), the psoralen group received 27 mg·kg^-1 psoralen by gavage, and the clopidogrel group was gavaged with 7.5 mg·kg^-1 clopidogrel. […] All rats were treated once daily for seven days. Each rat was injected with 2.4 mg·kg^-1 ciprofol via the tail vein 12 h after the end of dosing on Day 7. Rats that received ciprofol injection were placed on a flat and soft insulation pad. Timekeeping began when the rats were in the supine position and lost the righting reflex and ended when the rats could turn to the prone position successfully. The duration of loss of righting reflex (LORR) in each rat was measured. During this period, approximately 300 μL of blood was collected from the inner canthus at 2, 4, 8, 12, 16, 20, 30, 45, and 60 min after ciprofol administration, and the plasma was separated. The plasma was processed and measured as described in Section 2.4.3, and DAS 2.0 software and a noncompartmental model were used to analyse the pharmacokinetic parameters.
IBM SPSS Statistics 27 software was used to analyse the main pharmacokinetic parameters, and GraphPad Prism 8.0.2 software was used for graphical visualization. One-way ANOVA was used, and multiple comparisons were performed using the least significant difference (LSD)-T test, for which P < 0.05 indicated a significant difference.

[1] = SD, rat, plasma, intravenous, 2.4 mg/kg, rats, Clopidogrel group (7.5 mg·kg^-1 gavage daily 7 d), n = 8
[2] = SD, rat, plasma, intravenous, 2.4 mg/kg, rats, Control group (0.5% CMC gavage 7 d), n = 8
[3] = SD, rat, plasma, intravenous, 2.4 mg/kg, rats, Psoralen group (27 mg·kg^-1 gavage daily 7 d), n = 8
[4] = SD, rat, plasma, iv, 2.4 mg/kg, Control (CMC-Na), rats No.1-8 and Mean
[5] = SD, rat, plasma, iv, 2.4 mg·kg^-1, Control (CMC-Na), rats No.1-8 and Mean
[6] = SD, rat, plasma, iv, 6.75 mg/kg, Clopidogrel(6.75mg/kg)group, rats No.1-8 and Mean
[7] = SD, rat, plasma, iv, 27 mg/kg, Psoralen(27mg/kg)group, rats No.1-8 and Mean

Structure (SMILES): CC(C)c1cccc([C@H](C)C2CC2)c1O [ciprofol]
- Tmax (Control (CMC-Na), rats No.1-8 and Mean): 2.00 min
- Tmax (Psoralen(27mg/kg)group, rats No.1-8 and Mean): 2.00 min
- CLz (Psoralen(27mg/kg)group, rats No.1-8 and Mean, 27 mg/kg): 140 mL/min/kg and 120 mL/min/kg and 130 mL/min/kg
- clearance (SD, rat, plasma, Psoralen(27mg/kg)group, rats No.1-8 and Mean, read-out: CLz): 130 mL/min/kg
- AUC(0-inf) [1]: 318 ± 45 ng·h/mL
- AUC(0-t) [1]: 296 ± 40.8 ng·h/mL
- Cmax [1]: 1490 ± 292 ng/mL
- clearance (SD, rat, plasma, intravenous, 2.4 mg/kg, rats, Clopidogrel group (7.5 mg·kg^-1 gavage daily 7 d), n = 8, read-out: CL (converted)): 128 mL/min/kg
- MRT last (SD, rat, plasma, intravenous, 2.4 mg/kg, rats, Clopidogrel group (7.5 mg·kg^-1 gavage daily 7 d), n = 8, read-out: MRT0-t): 12.6 ± 1.2 min
- MRT inf (SD, rat, plasma, intravenous, 2.4 mg/kg, rats, Clopidogrel group (7.5 mg·kg^-1 gavage daily 7 d), n = 8, read-out: MRT0-∞): 18.6 ± 6.6 min
- Vd (SD, rat, plasma, intravenous, 2.4 mg/kg, rats, Clopidogrel group (7.5 mg·kg^-1 gavage daily 7 d), n = 8, read-out: Vd): 3.71 ± 2.03 L/kg
- half-life (SD, rat, plasma, intravenous, 2.4 mg/kg, rats, Clopidogrel group (7.5 mg·kg^-1 gavage daily 7 d), n = 8, read-out: t1/2 (converted)): 21 ± 13.8 min
- AUC(0-inf) [2]: 268 ± 35.5 ng·h/mL
- AUC(0-t) [2]: 260 ± 35.1 ng·h/mL
- Cmax [2]: 1550 ± 173 ng/mL
- clearance (SD, rat, plasma, intravenous, 2.4 mg/kg, rats, Control group (0.5% CMC gavage 7 d), n = 8, read-out: CL (converted)): 152 mL/min/kg
- MRT last (SD, rat, plasma, intravenous, 2.4 mg/kg, rats, Control group (0.5% CMC gavage 7 d), n = 8, read-out: MRT0-t): 10.8 ± 0.6 min
- MRT inf (SD, rat, plasma, intravenous, 2.4 mg/kg, rats, Control group (0.5% CMC gavage 7 d), n = 8, read-out: MRT0-∞): 13.2 ± 2.4 min
- Vd (SD, rat, plasma, intravenous, 2.4 mg/kg, rats, Control group (0.5% CMC gavage 7 d), n = 8, read-out: Vd): 3.02 ± 0.72 L/kg
- half-life (SD, rat, plasma, intravenous, 2.4 mg/kg, rats, Control group (0.5% CMC gavage 7 d), n = 8, read-out: t1/2 (converted)): 13.8 ± 3 min
- AUC(0-inf) [3]: 315 ± 23.4 ng·h/mL
- AUC(0-t) [3]: 299 ± 17.6 ng·h/mL
- Cmax [3]: 1490 ± 200 ng/mL
- clearance (SD, rat, plasma, intravenous, 2.4 mg/kg, rats, Psoralen group (27 mg·kg^-1 gavage daily 7 d), n = 8, read-out: CL (converted)): 128 mL/min/kg
- MRT last (SD, rat, plasma, intravenous, 2.4 mg/kg, rats, Psoralen group (27 mg·kg^-1 gavage daily 7 d), n = 8, read-out: MRT0-t): 13.8 ± 1.2 min
- MRT inf (SD, rat, plasma, intravenous, 2.4 mg/kg, rats, Psoralen group (27 mg·kg^-1 gavage daily 7 d), n = 8, read-out: MRT0-∞): 16.8 ± 3 min
- Vd (SD, rat, plasma, intravenous, 2.4 mg/kg, rats, Psoralen group (27 mg·kg^-1 gavage daily 7 d), n = 8, read-out: Vd): 2.8 ± 0.46 L/kg
- half-life (SD, rat, plasma, intravenous, 2.4 mg/kg, rats, Psoralen group (27 mg·kg^-1 gavage daily 7 d), n = 8, read-out: t1/2 (converted)): 15.6 ± 3 min
- concentration at 20 min [4]: 159 ng/mL
- concentration at 30 min [4]: 93.3 ng/mL
- concentration at 45 min [4]: 67.3 ng/mL
- Cmax [4]: 1550 ng/mL
- clearance (SD, rat, plasma, iv, 2.4 mg/kg, Control (CMC-Na), rats No.1-8 and Mean, read-out: CLz): 150 mL/min/kg
- MRT last (SD, rat, plasma, iv, 2.4 mg/kg, Control (CMC-Na), rats No.1-8 and Mean, read-out: MRT(0-t) (converted)): 10.8 min
- MRT inf (SD, rat, plasma, iv, 2.4 mg/kg, Control (CMC-Na), rats No.1-8 and Mean, read-out: MRT(0-∞) (converted)): 12.9 min
- Vd (SD, rat, plasma, iv, 2.4 mg/kg, Control (CMC-Na), rats No.1-8 and Mean, read-out: Vz): 3.02 L/kg
- half-life (SD, rat, plasma, iv, 2.4 mg/kg, Control (CMC-Na), rats No.1-8 and Mean, read-out: t1/2z): 13.8 min
- concentration at 2 min [5]: 1500 ng/mL
- concentration at 8 min [5]: 419 ng/mL
- concentration at 12 min [5]: 312 ng/mL
- concentration at 16 min [5]: 224 ng/mL
- concentration at 2 min [6]: 1050 ng/mL
- concentration at 8 min [6]: 406 ng/mL
- concentration at 12 min [6]: 334 ng/mL
- concentration at 16 min [6]: 266 ng/mL
- concentration at 20 min [6]: 193 ng/mL
- concentration at 45 min [6]: 65.7 ng/mL
- concentration at 60 min (SD, rat, plasma, iv, 6.75 mg/kg, Clopidogrel(6.75mg/kg)group, T 60.00 min, rats No.1-8 and Mean): 43.3 ng/mL
- Cmax [6]: 1490 ng/mL
- clearance (SD, rat, plasma, iv, 6.75 mg/kg, Clopidogrel(6.75mg/kg)group, rats No.1-8 and Mean, read-out: CLz): 130 mL/min/kg
- MRT last (SD, rat, plasma, iv, 6.75 mg/kg, Clopidogrel(6.75mg/kg)group, rats No.1-8 and Mean, read-out: MRT(0-t) (converted)): 12.6 min
- concentration at 2 min [7]: 1560 ng/mL
- concentration at 4 min (SD, rat, plasma, iv, 27 mg/kg, Psoralen(27mg/kg)group, T 4.00 min, rats No.1-8 and Mean): 895 ng/mL
- concentration at 8 min [7]: 532 ng/mL
- concentration at 12 min [7]: 374 ng/mL
- concentration at 16 min [7]: 348 ng/mL
- concentration at 20 min [7]: 203 ng/mL
- concentration at 30 min [7]: 145 ng/mL
- Cmax [7]: 1490 ng/mL
- MRT last (SD, rat, plasma, iv, 27 mg/kg, Psoralen(27mg/kg)group, rats No.1-8 and Mean, read-out: MRT(0-t) (converted)): 13.6 min
- MRT inf (SD, rat, plasma, iv, 27 mg/kg, Psoralen(27mg/kg)group, rats No.1-8 and Mean, read-out: MRT(0-∞) (converted)): 17 min
- Vd (SD, rat, plasma, iv, 27 mg/kg, Psoralen(27mg/kg)group, rats No.1-8 and Mean, read-out: Vz): 2.8 L/kg
- half-life (SD, rat, plasma, iv, 27 mg/kg, Psoralen(27mg/kg)group, rats No.1-8 and Mean, read-out: t1/2z): 15.4 min
- Tmax (SD, rat, plasma, iv, Clopidogrel(6.75mg/kg)group, rats No.1-8 and Mean, read-out: Tmax (converted)): 2 min
- Tmax (SD, rat, plasma, iv, Control (CMC-Na), rats No.1-8 and Mean, read-out: Tmax (converted)): 2 min
- Tmax (SD, rat, plasma, iv, Psoralen(27mg/kg)group, rats No.1-8 and Mean, read-out: Tmax (converted)): 2 min

Reference: paper PMC11285948, “The effects of CYP2B6 inactivators on the metabolism of ciprofol” (PLOS ONE, 2024)
